A value given as a limit tells only on which side of the number the result lay.

The target in the assay is T1, KCNQ 2/3 channels (HEK293 cells stably expressing human KCNQ2 and KCNQ3 subunits) (Homo sapiens, UniProt O43525+O43526).
T1 construct: expressed in transfected cells; host or cells: HEK293
The assay is described as follows: KCNQ2/3 channel activation, thallium flux FLIPR assay with BTC-AM dye. The conditions noted are these: for Emax: HEK293, maximum response relative to the response produced by 10 μM retigabine (set at 100%), read-out: Max. %; for EC50: HEK293 cells expressing human KCNQ2 and KCNQ3, thallium flux, FLIPR. The assay is classed as cell-based. In a few lines: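 HEK293 cells stably expressing human KCNQ2/KCNQ3 were loaded with BTC-AM (3 μg/mL, 2 h, RT) and preincubated with compound for 4 min in pH 7.3 gluconate buffer containing 0.1 mM ouabain. Flux was triggered by 6 mM TlNO3/10 mM K2SO4 and read for 3 min; EC50 came from summed responses over basal, with maximum relative to 10 μM retigabine (100%).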

By EC50 is commonly meant the midpoint of the concentration-response curve. Read a low EC50 as an effect from little substance. For the compound `O=C(C[C@@H]1C[C@@H]2C=C[C@H]1C2)Nn1nc(C2CCC2)c2ccccc2c1=O` [Example 67, 2-[(1S,2S,4S)-bicyclo[2.2.1]hept-5-en-2-yl]-N-(4-cyclobutyl-1-oxophthalazin-2(1H)-yl)acetamide], the Emax stood at 166% and the half-maximal effective concentration (EC50) was less than 100 nM.

For `O=C(Cc1cc(F)cc(F)c1)Nn1nc(C2CCC2)c2ccccc2c1=O` [Example 69, N-(4-cyclobutyl-1-oxophthalazin-2(1H)-yl)-2-(3,5-difluorophenyl)acetamide], the Emax worked out at 138% and the EC50 was less than 100 nM.

For `O=C(Cc1ccc(Cl)cc1)Nn1nc(C2CCC2)c2ccccc2c1=O` [Example 70, 2-(4-chlorophenyl)-N-(4-cyclobutyl-1-oxophthalazin-2(1H)-yl)acetamide], the Emax came to 124% and the EC50 lay within 100 to 500 nM.

Turning to `O=C(Cc1ccc(Cl)cc1)Nn1nc(C2CCCC2)c2ccccc2c1=O` [Example 72, 2-(4-chlorophenyl)-N-(4-cyclopentyl-1-oxophthalazin-2(1H)-yl)acetamide], the Emax came to 130% and the EC50 is less than 100 nM.

`O=C(Cc1cc(F)cc(F)c1)Nn1nc(C2CCCC2)c2ccccc2c1=O` [Example 73, N-(4-cyclopentyl-1-oxophthalazin-2(1H)-yl)-2-(3,5-difluorophenyl)acetamide]: the Emax was determined as 142% and the concentration giving a half-maximal response (EC50) was less than 100 nM.

Regarding `O=C(CC12CC3CC(CC(C3)C1)C2)Nn1nc(C2CCCCC2)c2ccccc2c1=O` [Example 75, 2-(adamantan-1-yl)-N-(4-cyclohexyl-1-oxophthalazin-2(1H)-yl)acetamide], the Emax was 243% and the EC50 is less than 100 nM.

As for `O=C(Cc1ccc(Cl)cc1)Nn1nc(C2CCCCC2)c2ccccc2c1=O` [Example 76, 2-(4-chlorophenyl)-N-(4-cyclohexyl-1-oxophthalazin-2(1H)-yl)acetamide], the Emax was found to be 157% and the EC50 was 100 to 500 nM.

As for `O=C(Cc1cc(F)cc(F)c1)Nn1nc(C2CCCCC2)c2ccccc2c1=O` [Example 77, N-(4-cyclohexyl-1-oxophthalazin-2(1H)-yl)-2-(3,5-difluorophenyl)acetamide], the Emax turned out to be 145% and the EC50 was less than 100 nM.

As to `COC(=O)c1ccc(-c2nn(NC(=O)Cc3ccc(Cl)cc3)c(=O)c3ccccc23)cc1` [Example 80, methyl 4-(3-{[(4-chlorophenyl)acetyl]amino}-4-oxo-3,4-dihydrophthalazin-1-yl)benzoate], the Emax was found to be 80% and the EC50 lay in the range of 100 to 500 nM.

Consider `CC(C)(CC(=O)Nn1nc(-c2ccccc2)c2ccccc2c1=O)c1ccccc1` [Example 82, 3-methyl-N-(1-oxo-4-phenylphthalazin-2(1H)-yl)-3-phenylbutanamide], for which the Emax was 156% and the EC50 is 100 to 500 nM.

Regarding `O=C(Cc1ccc(Cl)cc1Cl)Nn1nc(-c2ccccc2)c2ccccc2c1=O` [Example 83, 2-(2,4-dichlorophenyl)-N-(1-oxo-4-phenylphthalazin-2(1H)-yl)acetamide], the Emax came to 13% and the EC50 was more than 10000 nM.

For the compound `CC(C)(CC(=O)Nn1nc(-c2ccc(Br)cc2)c2ccccc2c1=O)c1ccccc1` [Example 85, N-[4-(4-bromophenyl)-1-oxophthalazin-2(1H)-yl]-3-methyl-3-phenylbutanamide], the Emax is 117% and the EC50 was 100 to 500 nM.

Consider `CC1(CC(=O)Nn2nc(-c3ccc(Cl)cc3)c3ccccc3c2=O)CCCC1` [Example 86, N-[4-(4-chlorophenyl)-1-oxophthalazin-2(1H)-yl]-2-(1-methylcyclopentyl)acetamide], for which the Emax came to 166% and the EC50 was less than 100 nM.

As for `O=C(CC1(C(F)(F)F)CCCC1)Nn1nc(-c2ccc(Cl)cc2)c2ccccc2c1=O` [Example 87, N-[4-(4-chlorophenyl)-1-oxophthalazin-2(1H)-yl]-2-[1-(trifluoromethyl)cyclopentyl]acetamide], the Emax worked out at 104% and the EC50 lay in the range of 500 to 1000 nM.

For the compound `CC(C)(CC(=O)Nn1nc(-c2ccc(Cl)cc2)c2ccccc2c1=O)c1ccccc1` [Example 89, N-[4-(4-chlorophenyl)-1-oxophthalazin-2(1H)-yl]-3-methyl-3-phenylbutanamide], the Emax came out at 118% and the EC50 fell in the range of 100 to 500 nM.

As to `O=C(Nn1nc(-c2ccc(Cl)cc2)c2ccccc2c1=O)C(F)c1ccccc1` (stereo not drawn) [Example 90, N-[4-(4-chlorophenyl)-1-oxophthalazin-2(1H)-yl]-2-fluoro-2-phenylacetamide], the Emax was 1% and the EC50 is more than 10000 nM.

Turning to `O=C(Cc1cccnc1)Nn1nc(-c2ccc(Cl)cc2)c2ccccc2c1=O` [Example 93, N-[4-(4-chlorophenyl)-1-oxophthalazin-2(1H)-yl]-2-(pyridin-3-yl)acetamide], the Emax is 149% and the EC50 lay within 1000 to 10000 nM.

For `O=C(Cc1cccc(OC(F)(F)F)c1)Nn1nc(-c2ccc(Cl)cc2)c2ccccc2c1=O` [Example 98, N-[4-(4-chlorophenyl)-1-oxophthalazin-2(1H)-yl]-2-[3-(trifluoromethoxy)phenyl]acetamide], the Emax came to 80% and the EC50 was 500 to 1000 nM.

As to `O=C(Cc1ccc(C(F)(F)F)cc1)Nn1nc(-c2ccc(Cl)cc2)c2ccccc2c1=O` [Example 99, N-[4-(4-chlorophenyl)-1-oxophthalazin-2(1H)-yl]-2-[4-(trifluoromethyl)phenyl]acetamide], the Emax came out at 81% and the concentration for a half-maximal effect (EC50) lay in the range of 500 to 1000 nM.

Turning to `O=C(Cc1cccc(C(F)(F)F)c1)Nn1nc(-c2ccc(Cl)cc2)c2ccccc2c1=O` [Example 100, N-[4-(4-chlorophenyl)-1-oxophthalazin-2(1H)-yl]-2-[3-(trifluoromethyl)phenyl]acetamide], the Emax amounted to 79% and the EC50 fell in the range of 100 to 500 nM.

Consider `CN(C)c1ccc(CC(=O)Nn2nc(-c3ccc(Cl)cc3)c3ccccc3c2=O)cc1` [Example 101, N-[4-(4-chlorophenyl)-1-oxophthalazin-2(1H)-yl]-2-[4-(dimethylamino)phenyl]acetamide], for which the Emax stood at 57% and the EC50 lay in the range of 1000 to 10000 nM.

In the case of `O=C(Cc1ccc(Br)cc1)Nn1nc(-c2ccc(Cl)cc2)c2ccccc2c1=O` [Example 102, 2-(4-bromophenyl)-N-[4-(4-chlorophenyl)-1-oxophthalazin-2(1H)-yl]acetamide], the Emax was 112% and the EC50 is 500 to 1000 nM.

Take `O=C(Cc1cccc(Cl)c1)Nn1nc(-c2ccc(Cl)cc2)c2ccccc2c1=O` [Example 103, 2-(3-chlorophenyl)-N-[4-(4-chlorophenyl)-1-oxophthalazin-2(1H)-yl]acetamide]: the Emax is 140% and the EC50 lay within 100 to 500 nM.

In the case of `COc1ccc(CC(=O)Nn2nc(-c3ccc(Cl)cc3)c3ccccc3c2=O)cc1` [Example 104, N-[4-(4-chlorophenyl)-1-oxophthalazin-2(1H)-yl]-2-(4-methoxyphenyl)acetamide], the Emax came out at 97% and the concentration for a half-maximal effect (EC50) fell in the range of 1000 to 10000 nM.

For `COc1cccc(CC(=O)Nn2nc(-c3ccc(Cl)cc3)c3ccccc3c2=O)c1` [Example 105, N-[4-(4-chlorophenyl)-1-oxophthalazin-2(1H)-yl]-2-(3-methoxyphenyl)acetamide], the Emax came out at 84% and the EC50 lay in the range of 100 to 500 nM.

`Cc1ccc(CC(=O)Nn2nc(-c3ccc(Cl)cc3)c3ccccc3c2=O)cc1` [Example 107, N-[4-(4-chlorophenyl)-1-oxophthalazin-2(1H)-yl]-2-(4-methylphenyl)acetamide]: the Emax is 98% and the EC50 lay within 100 to 500 nM.

For the compound `Cc1cccc(CC(=O)Nn2nc(-c3ccc(Cl)cc3)c3ccccc3c2=O)c1` [Example 108, N-[4-(4-chlorophenyl)-1-oxophthalazin-2(1H)-yl]-2-(3-methylphenyl)acetamide], the Emax was 96% and the EC50 lay within 100 to 500 nM.

Turning to `O=C(CC1CCCC1)Nn1nc(-c2ccc(Cl)cc2)c2ccccc2c1=O` [Example 109, N-[4-(4-chlorophenyl)-1-oxophthalazin-2(1H)-yl]-2-cyclopentylacetamide], the Emax turned out to be 138% and the EC50 is less than 100 nM.

Turning to `CC(C)CCC(=O)Nn1nc(-c2ccc(Cl)cc2)c2ccccc2c1=O` [Example 110, N-[4-(4-chlorophenyl)-1-oxophthalazin-2(1H)-yl]-4-methylpentanamide], the Emax was 120% and the concentration giving a half-maximal response (EC50) is less than 100 nM.

Regarding `CS(=O)(=O)c1ccc(CC(=O)Nn2nc(-c3ccc(Cl)cc3)c3ccccc3c2=O)cc1` [Example 111, N-[4-(4-chlorophenyl)-1-oxophthalazin-2(1H)-yl]-2-[4-(methylsulfonyl)phenyl]acetamide], the Emax stood at 25% and the EC50 is more than 10000 nM.

On to `O=C(Cc1ccc(Cl)s1)Nn1nc(-c2ccc(Cl)cc2)c2ccccc2c1=O` [Example 112, N-[4-(4-chlorophenyl)-1-oxophthalazin-2(1H)-yl]-2-(5-chloro-2-thienyl)acetamide], for which the Emax came to 92% and the EC50 lay within 100 to 500 nM.

As to `O=C(Cc1ccc(Cl)c(F)c1)Nn1nc(-c2ccc(Cl)cc2)c2ccccc2c1=O` [Example 114, 2-(4-chloro-3-fluorophenyl)-N-[4-(4-chlorophenyl)-1-oxophthalazin-2(1H)-yl]acetamide], the Emax amounted to 119% and the EC50 was in the range of 500 to 1000 nM.

With `CC1(C)[C@H]2CC[C@@H](CC(=O)Nn3nc(-c4ccc(Cl)cc4)c4ccccc4c3=O)[C@@H]1C2` [Example 115, N-[4-(4-chlorophenyl)-1-oxophthalazin-2(1H)-yl]-2-[(1S,2S,5S)-6,6-dimethylbicyclo[3.1.1]hept-2-yl]acetamide], the Emax stood at 69% and the EC50 was 100 to 500 nM.

Values taken from patent US8629143B2, “Potassium channel modulators” (AbbVie Inc., priority 2009, dated 2014).
